Columns and labels:
DNA-dependent ATPase A = molecular target: T1, DNA-dependent ATPase A (Bos taurus, UniProt Q9TTA5); experiment: Inhibition of ATP hydrolysis by DNA-dependent ATPase A (overexpressed 82 kDa ADAAD); format: biochemical, bovine; conditions: Ki, Table 4; determined in the presence of effector
T1 sequence (Q9TTA5 222-940): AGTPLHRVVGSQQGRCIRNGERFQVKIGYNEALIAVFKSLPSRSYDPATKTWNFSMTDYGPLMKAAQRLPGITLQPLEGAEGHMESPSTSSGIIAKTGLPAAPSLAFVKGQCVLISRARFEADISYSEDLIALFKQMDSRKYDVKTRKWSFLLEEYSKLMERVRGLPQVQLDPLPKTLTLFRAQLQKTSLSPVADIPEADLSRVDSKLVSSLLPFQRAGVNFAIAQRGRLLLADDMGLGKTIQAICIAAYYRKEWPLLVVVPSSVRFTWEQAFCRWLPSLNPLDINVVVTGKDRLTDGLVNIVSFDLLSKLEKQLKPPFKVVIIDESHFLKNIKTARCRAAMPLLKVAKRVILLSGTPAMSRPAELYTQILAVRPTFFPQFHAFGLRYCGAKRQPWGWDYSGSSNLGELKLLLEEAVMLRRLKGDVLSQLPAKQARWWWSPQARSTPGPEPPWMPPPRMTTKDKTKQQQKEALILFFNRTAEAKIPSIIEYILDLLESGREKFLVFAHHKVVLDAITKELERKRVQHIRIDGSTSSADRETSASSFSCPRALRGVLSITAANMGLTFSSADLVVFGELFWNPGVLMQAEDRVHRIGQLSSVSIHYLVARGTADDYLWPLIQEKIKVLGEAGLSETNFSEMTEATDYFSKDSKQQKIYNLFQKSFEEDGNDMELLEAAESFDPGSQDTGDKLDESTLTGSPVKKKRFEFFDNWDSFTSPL
Procedure: Enzyme (0.2 units (one unit is the amount of enzyme required to hydrolyze 1 μmole of adenosine triphosphate per min)) was mixed with 50 mM Tris-SO4, pH 7.5, 1 mM MgCl2, 5 mM β-mercaptoethanol, 0.5 mg/mL bovine serum albumin, 2 mM phosphoenol pyruvate, 0.03 mg/mL pyruvate kinase, 10 nM of stem-loop DNA, and 2 mM adenosine triphosphate in a total volume of 100 μL. The reaction was typically incubated at 37° C. for 10-60 minutes. At the end of the designated time, 225 μL of 10% sodium dodecyl sulfate and 350 μL of water were added to stop the reaction. Color development requires the addition of two reagents: 180 μL of reagent A (prepared by mixing equal volumes of 60 to 70% perchloric acid and 5% ammonium molybdate in water) and 45 μL of reagent B (0.2 g 1:2:4 aminonaphthol sulfonic acid, 12.0 g sodium metabisulfite, and 2.4 g sodium sulfite dissolved in 100 mL of water) was added. The reaction was incubated at room temperature for 10 minutes and the absorbance was read at 720 nm. The color development was time-dependent and therefore samples must be read at exactly 10 minutes.
Enzyme (0.2 units (one unit is the amount of enzyme required to hydrolyze 1 μmole of adenosine triphosphate per min)) was mixed with 25 mM Tris-acetate pH 7.5, 6 mM Mg(acetate)2, 60 mM KCl, 5 mM β-mercaptoethanol, 3 mM phosphoenol pyruvate, 10 units/mL pyruvate kinase, 10 units/mL lactate dehydrogenase 10 nM DNA, 2 mM adenosine triphosphate, and 0.1 mg/mL NADH in a final volume of 1 mL. The progress of the reaction at 37° C. was monitored at 340 nm using an HP8452 spectrophotometer.
Enzyme (0.2 U) was mixed with 50 mM Tris-SO4, pH 7.5, 1 mM MgCl2, 5 mM β-mercaptoethanol, 0.5 mg/mL bovine serum albumin, 2 mM phosphoenol pyruvate, 0.03 mg/mL pyruvate kinase, 10 nM of stem-loop DNA, and 2 mM adenosine triphosphate in a total volume of 50 μL. Three (3) μCi of [^32P]-γ-adenosine triphosphate was added to the reaction and typical incubation was for 60 minutes 37° C. EDTA (25 mM) was added to stop the reaction. 10 μL of the reaction was spotted on a poly(ethylenimine)-cellulose plate. The plate was developed using 0.9M LiCl and 7M urea as solvent system. The plate was allowed to dry and autoradiographed either using X-OMAT film or a phosphorimager. […]

MDA-MB-231 = experiment: MTS cell survival assay, MDA-MB-231 breast cancer cells; format: cell-based; conditions: MDA-MB-231, FIG. 9
Procedure: (§1) The effect of phosphoaminoglycosides on tumor cell growth was tested in cell culture inhibition studies. 5000 cells were plated in a total volume of 50 μl in a 96 well titer plate. After 24 hours, 50 μl of media and drugs, to the required final concentration, were added. The plates were incubated at 37° C. for 5 days. On the 5th day, the fraction of surviving cells was estimated using a non-radioactive cell proliferation assay (CellTiter 96 AQueous Cell Proliferation Assay from Promega).
(§2) This is a colorimetric assay that determines the number of viable cells. The assay measures the bioreduction of a tetrazolium compound (3-(4,5-dimethylthiazol-2-yl)-5-(3-carboxymethoxyphenyl)-2-(4-sulfophenyl)-2H-tetrazolium, inner salt; MTS), via an electron coupling reagent (phenazine methosulfate; PMS), to formazan, which is soluble in the tissue culture medium. The absorbance of formazan at 490 nm can be measured from the 96 well assay plate without additional processing. The conversion of MTS into the aqueous soluble formazan is accomplished by dehydrogenase enzymes found in metabolically active cells. The quantity of formazan product as measured by the amount of 490 nm absorbance is directly proportional to the number of living cells in culture. […] 20 μl of PMS/MTS solution was added to the cells and the plates were incubated at 37° C. for 2 hours before measuring the absorbance at 490 nm. […]

DNA-independent ATPases = experiment: Effect on DNA-independent ATPases; format: biochemical
Procedure: (§3) A number of different ATPases, both DNA-dependent and DNA-independent, were analyzed for their behavior with respect to these drugs.

MCF-7 = experiment: MTS cell survival assay, MCF-7 breast cancer cells; format: cell-based; conditions: MCF-7, FIG. 9
Procedure: as §1, §2

PC3 cell line = experiment: MTS cell survival assay, PC3 prostate cancer cells; format: cell-based, human
Procedure: as §1
This is a colorimetric assay that determines the number of viable cells. The assay measures the bioreduction of a tetrazolium compound (3-(4,5-dimethylthiazol-2-yl)-5-(3-carboxymethoxyphenyl)-2-(4-sulfophenyl)-2H-tetrazolium, inner salt; MTS), via an electron coupling reagent (phenazine methosulfate; PMS), to formazan, which is soluble in the tissue culture medium. The absorbance of formazan at 490 nm can be measured from the 96 well assay plate without additional processing. The conversion of MTS into the aqueous soluble formazan is accomplished by dehydrogenase enzymes found in metabolically active cells. The quantity of formazan product as measured by the amount of 490 nm absorbance is directly proportional to the number of living cells in culture. 100 μl of the PMS reagent (Promega) was mixed with 2.0 ml of MTS solution (Promega). 20 μl of PMS/MTS solution was added to the cells and the plates were incubated at 37° C. for 2 hours before measuring the absorbance at 490 nm.
In an initial experiment, four drugs (A-kanamycin, B-phosphokanamycin, C-neomycin, and D-phosphoneomycin) were added to prostate cancer cell cultures in a blind fashion. Two prostate cancer cell lines were incubated with each of the drugs and assayed for cell survivability using the MTS assay (Promega).
5000 cells were grown overnight in media and each respective drug (A-kanamycin, B-phosphokanamycin, C-neomycin, and D-phosphoneomycin) was added on the second day. […] Each point is the average of readings from three wells.

DNA-dependent ATPases = experiment: Effect of millimolar neomycin on DNA-dependent ATPases; format: biochemical; conditions: millimolar concentrations
Procedure: as §3
This inhibition is directly attributable to the positive charge that the aminoglycosides carry and thus the sequestering of the DNA (negatively charged) away from the enzyme (the binding of kanamycin directly to DNA has been confirmed—data not shown). In addition, the phosphoneomycin has differing effects on DNA-dependent ATPases from various sources and of various function.

NCC[C@H](O)C(=O)N[C@@H]1C[C@H](N)[C@@H](O[C@H]2O[C@H](CN)[C@@H](O)[C@H](OP(=O)(O)O)[C@H]2O)[C@H](O)[C@H]1O[C@H]1O[C@H](CO)[C@@H](O)[C@H](N)[C@H]1O [3′ phosphorylated amikacin]
Ki (DNA-dependent ATPase A): 167 nM

CN[C@@H]1[C@@H](O)[C@@H](O[C@@H]2[C@@H](O)[C@H](O[C@H]3O[C@H](CO)[C@@H](O)[C@H](OP(=O)(O)O)[C@H]3N)[C@@H](N)C[C@H]2N)OC[C@H]1O [3′ phosphorylated gentamicin]
Ki (DNA-dependent ATPase A): 219 nM

CN[C@@H]1[C@@H](O)[C@@H](O[C@@H]2[C@@H](O)[C@H](O[C@H]3O[C@H]([C@@H](C)O)[C@@H](O)[C@H](OP(=O)(O)O)[C@H]3N)[C@@H](N)C[C@H]2N)OC[C@]1(C)O [phosphogeneticin, 3′-phosphogeneticin]
Ki (DNA-dependent ATPase A): 191 nM

Neomycin B & C (^˜15% Neomycin C) [reference compound]
effect on cell growth (in words) (MDA-MB-231): no effect | effect on DNA-independent ATPases (in words) (DNA-independent ATPases): neither affected | effect on cell growth (in words) (MCF-7): no effect | effect on PC3 cells (in words) (PC3 cell line; FIG. 8, day five): neither kanamycin nor neomycin had any effect | effect on PC3 cell survival (in words) (PC3 cell line; concentrations in excess of 1 mM): increased cell survival | inhibition of all DNA-dependent ATPases (in words) (DNA-dependent ATPases): some inhibition

From patent publication US6573060B1, “Methods and compositions for targeting DNA metabolic processes using aminoglycoside derivatives” (University of Virginia Patent Foundation, priority 1997, dated 2003)
